Values after ≈ are worked out from the molar mass of the structure shown.
What was measured:
VTT-E-193585 strain [1] = assay: Antibiotic susceptibility (MIC), CLSI M07 broth microdilution / agar dilution; assay type: cell-based, Xanthobacter sp.; settings: VTT-E-193585, 48 h ± 1 h, aerobic, +35±2° C., cation-adjusted Mueller Hinton Broth, fosfomycin by agar dilution; for MIC: read-out: Minimum Inhibitory Concentration (MIC)
[2] = tested on: Escherichia coli ATCC 25922; assay: Antibiotic susceptibility (MIC), quality control strain; assay type: cell-based; settings: E. coli ATCC 25922, 18 h ± 2 h, aerobic, +35±2° C.; for MIC: Escherichia coli, ATCC25922, read-out: Minimum Inhibitory Concentration (MIC)
Experimental: (§1) Escherichia coli ATCC 25922 was used as quality control strain and it was incubated in aerobic conditions, at +35±2° C. for 18±2 hours.

VTT-E-193585 strain [3] = assay: Antibiotic susceptibility (MIC), CLSI M07 broth microdilution / agar dilution; assay type: cell-based, Xanthobacter sp.; settings: comparison of MIC values of Table 5
Experimental: as §1

CC1(C)S[C@@H]2[C@H](NC(=O)[C@H](N)c3ccccc3)C(=O)N2[C@H]1C(=O)O [Ampicillin, ampicillin]
MIC (VTT-E-193585 strain [1]): 16 µg/mL (≈ 45.8 µM)
MIC [2]: 8 µg/mL (≈ 22.9 µM)
MIC for VTT-E-193585 compared with E. coli ATCC 25922 (VTT-E-193585 strain [3]): higher

C[C@@H]1O[C@@H]1P(=O)(O)O [Fosfomycin, fosfomycin]
MIC (VTT-E-193585 strain [1]): 32 µg/mL (≈ 232 µM)
MIC [2]: 0.5 µg/mL (≈ 3.62 µM)
MIC for VTT-E-193585 compared with E. coli ATCC 25922 (VTT-E-193585 strain [3]): higher

NC[C@H]1O[C@H](O[C@H]2[C@H](O)[C@@H](O[C@H]3O[C@H](CO)[C@@H](O)[C@H](N)[C@H]3O)[C@H](N)C[C@@H]2N)[C@H](O)[C@@H](O)[C@@H]1O [Kanamycin, kanamycin]
MIC (VTT-E-193585 strain [1]): 2 µg/mL (≈ 4.13 µM)
MIC [2]: 4 µg/mL (≈ 8.26 µM)

[H]/N=C(/N)N[C@H]1[C@H](O)[C@@H](O)[C@H](O[C@@H]2O[C@@H](C)[C@](O)(C=O)[C@H]2O[C@@H]2O[C@@H](CO)[C@H](O)[C@@H](O)[C@@H]2NC)[C@@H](N/C(N)=N\[H])[C@@H]1O [Streptomycin, streptomycin]
MIC (VTT-E-193585 strain [1]): 0.5 µg/mL (≈ 0.86 µM)
MIC [2]: 4 µg/mL (≈ 6.88 µM)
MIC for VTT-E-193585 compared with E. coli ATCC 25922 (VTT-E-193585 strain [3]): lower or comparable

CN(C)[C@@H]1C(O)=C(C(N)=O)C(=O)[C@@]2(O)C(O)=C3C(=O)c4c(O)cccc4[C@@](C)(O)[C@H]3C[C@@H]12 [Tetracycline, tetracycline]
MIC (VTT-E-193585 strain [1]): 0.25 µg/mL (≈ 0.563 µM)
MIC [2]: 1 µg/mL (≈ 2.25 µM)

colistin
Minimum Inhibitory Concentration (MIC) (VTT-E-193585 strain [1]): 4 µg/mL
Minimum Inhibitory Concentration (MIC) [2]: 2 µg/mL
MIC for VTT-E-193585 compared with E. coli ATCC 25922 (VTT-E-193585 strain [3]): higher

gentamicin
Minimum Inhibitory Concentration (MIC) (VTT-E-193585 strain [1]): 0.5 µg/mL
Minimum Inhibitory Concentration (MIC) [2]: 0.5 µg/mL
MIC for VTT-E-193585 compared with E. coli ATCC 25922 (VTT-E-193585 strain [3]): lower or comparable

From patent US12600940B2, “Strains and processes for single cell protein or biomass production” (priority 2019, dated 2026)
